Reference: US10760052B2, “Method of inhibiting tau phosphorylation” (priority 2012, dated 2020)

Experiments:
α7nAChR (Aβ42 binding) = assay: FITC-Aβ42 binding to biotinylated α7nAChR-containing SK-N-MC cell fragments; parameters: species or system human; details: added simultaneously, 30° C., 30 minutes
FLNA-α7nAChR association = assay: FLNA association with α7nAChR in organotypic frontocortical slice cultures; type: cell-based, rat; details: 100 nM Aβ42, 16 hours, compound added simultaneously
Method: (§1) Tissue was harvested and solubilized, and a specific antibody against FLNA was used to immunoprecipitate FLNA and associated proteins. The FLNA immunoprecipitate was size-fractionated using SDS-PAGE, transferred and probed with specific antibodies directed against each of the following receptors: α7nAChR, TLR4, IR and MOR.
(§2) Rat brain slice organotypic culture methods were modified from those published previously. [Adamchik et al., Brain Res Brain Res Protoc 5:153-158 (2000).] FCX slices ([…]) were transferred to sterile, porous Millicell-CM inserts (0.4 μm). Each culture insert unit contained two brain slices and was placed into individual wells of a 12-well culture tray in 2 ml medium: 50% MEM with Earl's salts, 2 mM L-glutamine, 25% Earl's balanced salt solution, 6.5 g/l D-glucose, 20% fetal bovine serum (FBS), 5% horse serum, 25 mM HEPES buffer, pH 7.2, and […]. […]
(§3) The level of FLNA-associated α7nAChRs was determined using a co-immunoprecipitation/Western blotting method as described previously. […] The levels of FLNA-associated α7nAChR, TLR4, IR and MOR were assessed by Western blotting using specific antibodies directed against the respective proteins and the blot stripped and re-probed for FLNA for immunoprecipitation/loading control.

FLNA-TLR4 association = assay: FLNA association with TLR4 in organotypic frontocortical slice cultures; type: cell-based, rat; details: 100 nM Aβ42, 16 hours, compound added simultaneously
Method: as §1, §2, §3

[1] = tested on: tau (pSer202, pThr231, pThr181); assay: Tau phosphorylation in organotypic frontocortical slice cultures; type: cell-based, rat; details: C0105 0.1, 1, 10 nM; C0114 1, 10 nM; simultaneous with Aβ42
Method: On the day of study, medium was removed, the brain slices rinsed and incubated in 0.1% FBS-containing medium for 4 hours at 36° C. in 5% CO2.
The levels of phosphorylated tau (pSer202tau, pThr231tau and pThr181tau) as well as total tau precipitated (loading controls) are assessed by Western blotting using specific antibodies directed against each of the phosphoepitopes and the anti-tau, respectively.

α7nAChR = type: cell-based, rat
NMDAR [2] = type: cell-based, rat; details: slice cultures, 0.1 μM Aβ42
NMDAR [3] = assay: Levels of signaling molecules associated with NMDAR (NR1) in slice cultures; type: cell-based, rat; details: 0.1 μM Aβ42
Method: NMDAR activation and signaling was initiated by incubation of 6 slices with either 0.3 mM Mg^2+ containing KR (LMKR; basal) or LMKR containing 10 μM NMDA and 1 μM glycine at 37° C. for 30 minutes.
Ligand stimulation was terminated by the addition of 1 ml of ice-cold Ca^2+-free K-R containing mixture of protein phosphatase inhibitors, 0.5 mM EGTA and 0.1 mM EDTA. Brain slices were harvested by a brief centrifugation and were homogenized in 0.25 ml of ice-cold immunoprecipitation buffer. The homogenates were centrifuged at 1000×g for 5 minutes (4° C.) and the supernatant (post-mitochondrial fraction) was sonicated for 10 seconds on ice.
The resultant lysates were cleared by centrifugation at 50,000×g for 5 minutes and diluted with 0.75 ml of immunoprecipitation buffer. Protein concentrations were measured by Bradford method (Bio-Rad).
To determine the association of NMDARs with PSD-95, as well as NMDAR signaling, the levels of NMDAR subunits, PSD-95 and NMDAR-associated signaling molecules were measured in anti-NR1 immunoprecipitates. In these studies, brain slice lysates (100 μg) were immunoprecipitated overnight at 4° C. with 2 μg of immobilized anti-NR1 onto covalently conjugated protein A-agarose beads (Pierce-ENDOGEN). […]

insulin receptor (IR) = assay: IR activation and signaling (pY1150/1151 IRβ, IRS-1) in slice cultures; type: cell-based, rat; details: insulin stimulation
Method: IR activation and signaling was initiated by incubation of 6 slices that were further chopped horizontally into 100 μm (100 μm×200 μm×3 mm) with either KR (basal) or KR containing 1 nM insulin at 37° C. for 30 minutes. […] Ligand stimulation was terminated by the addition of 1 ml of ice-cold Ca^2+-free K-R containing mixture of protein phosphatase inhibitors, 0.5 mM EGTA and 0.1 mM EDTA. Brain slices were harvested by a brief centrifugation and were homogenized in 0.25 ml of ice-cold immunoprecipitation buffer. The homogenates were centrifuged at 1000×g for 5 minutes (4° C.) and the supernatant (post-mitochondrial fraction) was sonicated for 10 seconds on ice. […] The resultant lysates were then cleared by centrifugation at 50,000×g for 5 minutes and diluted with 0.75 ml of immunoprecipitation buffer. Protein concentrations were measured by Bradford method (Bio-Rad).
In these experiments, brain slice lysates (100 μg) were immunoprecipitated overnight (about 18 hours) at 4° C. with 2 μg of immobilized anti-IRβ onto covalently conjugated protein A-agarose beads (Pierce-ENDOGEN). […]

[4] = tested on: voltage-gated Ca2+ channel mediated Ca2+ influx; type: cell-based, rat; details: slice cultures

SMILES: O=C1CNC2(CCNCC2)N1Cc1ccccc1 [Compound C0114]
- Inhibition of FITC-Aβ42 binding (α7nAChR (Aβ42 binding); 0.1 nM compound): 27.8±3.3%
- Inhibition of FITC-Aβ42 binding (α7nAChR (Aβ42 binding); 1 nM compound): 40.0±2.1%
- Inhibition of FITC-Aβ42 binding (α7nAChR (Aβ42 binding); 10 nM compound): 53.4±3.6%
- Aβ42-induced increase in FLNA-α7nAChR association (FLNA-α7nAChR association): reduced the FLNA-α7AchR association at both concentrations
- Aβ42-induced increase in FLNA-TLR4 association (FLNA-TLR4 association): reduced the FLNA-α7AchR association at both concentrations and the FLNA-TLR4 association at 10 nM
- Aβ42-induced tau phosphorylation [1]: reduced tau phosphorylation at all three phosphorylation sites
- Aβ42-induced impairment in α7nAChR function (calcium influx after PNU282987) (α7nAChR): restored functioning of this receptor
- Aβ42-induced impairment in NMDAR function (calcium influx after NMDA and glycine) (NMDAR [2]): significantly restoring NMDAR function
- Levels of six signaling molecules associated with NR1 after NMDA and glycine (NMDAR [3]): fully restored function
- Aβ42-induced IR signaling impairments (IRS-1 association, pY1150/1151 IRβ) (insulin receptor (IR)): normalized the signaling impairments
- Aβ42-induced reduction of K+-evoked calcium influx [4]: completely reversed
